“And” between values parts separate entries of the source, which are not always exact repeats. Identical values can stand only once. Toxic doses and inconclusive results are not listed. How the source made its calls: active means survival T/C of 150% or more; inactive means T/C below 125% in these data.
Test system: BDF1 mice, B16 melanoma ip, median survival T/C
Assay: NCI In Vivo Anticancer Drug Screen. Data for tumor model B16 Melanoma (intraperitoneal) in B6D2F1 (BDF1) mice
Settings: endpoint: median survival time, higher = longer survival
Summary of the method: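 Mice with transplantable tumors; drug vs vehicle groups; endpoint survival or tumor size; value = T/C.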

[1] = dose: 100.0 mg/kg/injection, schedule: Q04DX003 (ip), vehicle: Klucel (hydroxypropylcellulose) (HPC)
[2] = dose: 12.5 mg/kg/injection, schedule: Q01DX009 (ip), vehicle: saline with Tween-80
[3] = dose: 25.0 mg/kg/injection, schedule: Q01DX009 (ip), vehicle: saline with Tween-80
[4] = dose: 25.0 mg/kg/injection, schedule: Q01DX009 (ip), vehicle: Klucel (hydroxypropylcellulose) (HPC)
[5] = dose: 100.0 mg/kg/injection, schedule: Q01DX009 (ip), vehicle: Klucel (hydroxypropylcellulose) (HPC)
[6] = dose: 6.25 mg/kg/injection, schedule: Q01DX009 (ip), vehicle: saline with Tween-80
[7] = dose: 50.0 mg/kg/injection, schedule: Q01DX009 (ip), vehicle: saline with Tween-80
[8] = dose: 200.0 mg/kg/injection, schedule: Q01DX009 (ip), vehicle: saline with Tween-80

Measured: T/C

CCCCCCNC(=O)Nc1cccc(Cl)c1C
inactive: [1] 92 % of control | dose: 200.0 mg/kg/injection, schedule: Q04DX003 (ip), vehicle: Klucel (hydroxypropylcellulose) (HPC) 90 % of control | dose: 400.0 mg/kg/injection, schedule: Q04DX003 (ip), vehicle: Klucel (hydroxypropylcellulose) (HPC) 87 % of control

Cc1ccc(S(=O)(=O)N(Cc2cccc(CN(S(=O)(=O)c3ccc(C)cc3)S(=O)(=O)c3ccc(C)cc3)c2)S(=O)(=O)c2ccc(C)cc2)cc1
inactive: [1] 87 % of control

C[n+]1ccc(Nc2ccc(NC(=O)c3ccc(Nc4cc[n+](C)c5ccc([N+](=O)[O-])cc45)cc3[N+](=O)[O-])cc2)cc1
inactive: [2] 95 % of control | [3] 100 % of control

c1cc2cc3c(cc2cc1CC1NCCc2cc4c(cc21)OCO4)OCO3 (stereo unspecified)
inactive: [4] 97 % of control | dose: 50.0 mg/kg/injection, schedule: Q01DX009 (ip), vehicle: Klucel (hydroxypropylcellulose) (HPC) 89 % of control | [5] 94 % of control

C=C(OC1C(C)=C2C(C1OC(=O)CCCCCCC)C(C)(OC(C)=O)CC(OC(=O)CCC)C1(O)C2OC(=O)C1(C)O)/C(C)=C/C (stereo unspecified)
inactive: dose: 0.37 mg/kg/injection, schedule: Q01DX009 (ip), vehicle: Klucel (hydroxypropylcellulose) (HPC) 97 % of control | dose: 1.5 mg/kg/injection, schedule: Q01DX009 (ip), vehicle: Klucel (hydroxypropylcellulose) (HPC) 99 % of control | dose: 3.0 mg/kg/injection, schedule: Q01DX009 (ip), vehicle: Klucel (hydroxypropylcellulose) (HPC) 115 % of control

CN=S(=O)(OCCCCCOS(=O)(=NC)c1ccc(C)cc1)c1ccc(C)cc1 (stereo unspecified)
inactive: [6] 101 % of control | [2] 103 % of control | [3] 99 % of control | [7] 102 % of control | dose: 100.0 mg/kg/injection, schedule: Q01DX009 (ip), vehicle: saline with Tween-80 101 % of control | [8] 106 % of control

CCCCN(CCCC)/N=C\C1=C2NC(=O)/C(C)=C\C=C/C(OC)C(OC(N)=O)/C(C)=C/C(C)C(O)C(OC)CC(C)CC(=C(OC)C1=O)C2=O (stereo unspecified)
inactive: dose: 12.5 mg/kg/injection, schedule: Q01DX005 (ip), vehicle: other 103 % of control | dose: 25.0 mg/kg/injection, schedule: Q01DX005 (ip), vehicle: other 94 % of control | dose: 50.0 mg/kg/injection, schedule: Q01DX005 (ip), vehicle: other 90 % of control | dose: 100.0 mg/kg/injection, schedule: Q01DX005 (ip), vehicle: other 95 % of control | dose: 200.0 mg/kg/injection, schedule: Q01DX005 (ip), vehicle: other 93 % of control

CC12C=CC(C=C1)C(O)C2 (stereo unspecified)
inactive: dose: 100.0 mg/kg/injection, schedule: Q04DX003 (ip), vehicle: saline with Tween-80 112 % of control | dose: 200.0 mg/kg/injection, schedule: Q04DX003 (ip), vehicle: saline with Tween-80 93 % of control | dose: 400.0 mg/kg/injection, schedule: Q04DX003 (ip), vehicle: saline with Tween-80 101 % of control

CCN(CC)CCCC(C)Nc1ccnc(/C=C/c2ccc(Cl)cc2)c1 (stereo unspecified)
inactive: dose: 12.5 mg/kg/injection, schedule: Q01DX009 (ip), vehicle: Klucel (hydroxypropylcellulose) (HPC) 86 % of control | dose: 18.75 mg/kg/injection, schedule: Q04DX003 (ip), vehicle: saline 86 % of control | [4] 92 % of control | dose: 37.5 mg/kg/injection, schedule: Q04DX003 (ip), vehicle: saline 93 % of control | dose: 75.0 mg/kg/injection, schedule: Q04DX003 (ip), vehicle: saline 89 % of control

O=C(O)/C=C\C(=O)Nc1ccccn1
inactive: dose: 5.0 mg/kg/injection, schedule: Q01DX009 (ip), vehicle: saline 100 % of control | dose: 10.0 mg/kg/injection, schedule: Q01DX009 (ip), vehicle: saline 100 % of control | dose: 30.0 mg/kg/injection, schedule: Q01DX009 (ip), vehicle: saline 112 % of control | dose: 60.0 mg/kg/injection, schedule: Q01DX009 (ip), vehicle: saline 109 % of control

CC1=CC(=O)[C@@H](O)[C@]2(C)[C@H]3[C@@]4(O)OC[C@]35[C@H]([C@@H](C)[C@H]4O)[C@@H](O)C(=O)O[C@@H]5C[C@@H]12
inactive: dose: 0.75 mg/kg/injection, schedule: Q01DX009 (ip), vehicle: saline 107 % of control | dose: 1.5 mg/kg/injection, schedule: Q01DX009 (ip), vehicle: saline 109 % of control | dose: 3.0 mg/kg/injection, schedule: Q01DX009 (ip), vehicle: saline 117 % of control | dose: 6.0 mg/kg/injection, schedule: Q01DX009 (ip), vehicle: saline 108 % of control

CN(C)CCCNc1c2ccccc2nc2cccc([N+](=O)[O-])c12
inactive: dose: 2.0 micrograms/kg/injection, schedule: Q01DX009 (ip), vehicle: saline 112 % of control | dose: 4.0 micrograms/kg/injection, schedule: Q01DX009 (ip), vehicle: saline 116 % of control | dose: 8.0 micrograms/kg/injection, schedule: Q01DX009 (ip), vehicle: saline 107 % of control | dose: 16.0 micrograms/kg/injection, schedule: Q01DX009 (ip), vehicle: saline 109 % of control | dose: 32.0 micrograms/kg/injection, schedule: Q01DX009 (ip), vehicle: saline 121 % of control | dose: 63.0 micrograms/kg/injection, schedule: Q01DX009 (ip), vehicle: saline 103 % of control | dose: 125.0 micrograms/kg/injection, schedule: Q01DX009 (ip), vehicle: saline 90 % of control

O=C1C=C(c2ccccc2)C(=O)C=C1c1ccccc1
inactive: dose: 6.0 mg/kg/injection, schedule: Q04DX003 (ip), vehicle: gum acacia 100 % of control | dose: 12.0 mg/kg/injection, schedule: Q04DX003 (ip), vehicle: gum acacia 91 % of control | dose: 25.0 mg/kg/injection, schedule: Q04DX003 (ip), vehicle: gum acacia 92 % of control and 93 % of control

COc1ccc(NC(=O)Oc2ccc(Cl)c(C)c2)cc1
inactive: [8] 116 % of control | dose: 400.0 mg/kg/injection, schedule: Q01DX009 (ip), vehicle: saline with Tween-80 105 % of control

Nc1cccs1
inactive: dose: 12.5 mg/kg/injection, schedule: Q01DX009 (ip), vehicle: saline 108 % of control | dose: 25.0 mg/kg/injection, schedule: Q01DX009 (ip), vehicle: saline 99 % of control | dose: 50.0 mg/kg/injection, schedule: Q01DX009 (ip), vehicle: saline 94 % of control

Cc1c2cc(Cl)c3ccccc3c2c[n+]2ccccc12
inactive: dose: 3.12 mg/kg/injection, schedule: Q01DX009 (ip), vehicle: saline with Tween-80 110 % of control | [6] 113 % of control | [2] 110 % of control | [3] 115 % of control | [7] 115 % of control

CC(=O)CC(=O)Nc1cccc([N+](=O)[O-])c1
inactive: [4] 100 % of control | [5] 94 % of control
